The record followed here is ChEMBL document CHEMBL3098093, “Synthesis, modification and docking studies of 5-sulfonyl isatin derivatives as SARS-CoV 3C-like protease inhibitors” (Bioorg Med Chem, 2014).

In the first test the target is Replicase polyprotein 1ab (Severe acute respiratory syndrome-related coronavirus) (UniProt P0C6X7). As to the kind of experiment: Inhibition of GST-tagged SARS coronavirus 3C-like protease at 1 mM by FRET assay.
On to `COc1ccc2c(c1)C(=O)C(=O)N2`, for which the inhibition turned out to be 95.3%.
Same read-out and setting: next, `CC(=O)c1ccc2c(c1)C(=O)C(=O)N2`: 95.4%; `O=C1Nc2ccc(I)cc2C1=O`: 86.7%.
Still for that read-out and setting: next, `O=C1Nc2ccc(C(=O)O)cc2C1=O`: 44.8%; `O=C1Nc2ccc([N+](=O)[O-])cc2C1=O`: 94%; `CN1CCN(S(=O)(=O)c2ccc3c(c2)C(=O)C(=O)N3)CC1`: 98.6%.
On the same count and under the same terms, next, `O=C1Nc2ccc(Cl)cc2C1=O`: 84.2%; `O=C1Nc2cc3c(cc2C1=O)CCC3`: 79.4%; `O=C1Nc2ccc(Br)cc2C1=O`: 90.5%.
Consider `O=C1Nc2cccc(Br)c2C1=O`, for which the inhibition came out at 68.4%.
The same measure, in the same setting: next, `O=C1Nc2ccc(F)cc2C1=O`: 82.5%.

The next test deals with Replicase polyprotein 1ab (Severe acute respiratory syndrome-related coronavirus, UniProt P0C6X7). In words: Inhibition of GST-tagged SARS coronavirus 3C-like protease by FRET assay.
`CN1CCN(S(=O)(=O)c2ccc3c(c2)C(=O)C(=O)N3Cc2ccc3ccccc3c2)CC1` returned an IC50 of 82.9 µM.
The same measure, in the same setting: next, `CN1CCN(S(=O)(=O)c2ccc3c(c2)C(=O)C(=O)N3C)CC1`: 11.8 µM.
`O=C1Nc2ccc(S(=O)(=O)N3CCOCC3)cc2C1=O`: the midpoint of inhibition, the IC50, lay at 12.7 µM.
Consider `CC1CC(C)CN(S(=O)(=O)c2ccc3c(c2)C(=O)C(=O)N3)C1` (stereo not drawn), for which the IC50 amounted to 4.3 µM.
On the same count and under the same terms, next, `CC1CCCCN1S(=O)(=O)c1ccc2c(c1)C(=O)C(=O)N2` (stereo not drawn): 2.25 µM.
The molecule `O=C1Nc2ccc(S(=O)(=O)N3CCCCC3)cc2C1=O` yielded an IC50 of 4.45 µM.
The same measure, in the same setting: next, `CC1CC(C)CN(S(=O)(=O)c2ccc3c(c2)C(=O)C(=O)N3Cc2ccccc2)C1` (stereo not drawn): 4.7 µM; `CN1C(=O)C(=O)c2cc(S(=O)(=O)N3CCN(CCc4ccccc4)CC3)ccc21`: 13.9 µM.
Still for that read-out and setting: next, `CN1C(=O)C(=O)c2cc(S(=O)(=O)N3CCOCC3)ccc21`: 9.91 µM; `CN1CCN(S(=O)(=O)c2ccc3c(c2)C(=O)C(=O)N3Cc2ccccc2)CC1`: 67.2 µM.
The same measure, in the same setting: under `O=C1Nc2ccc(S(=O)(=O)N3CCN(c4cccc(C(F)(F)F)c4)CC3)cc2C1=O` stands above 100 µM.
In turn, `COc1cc(CN2CCN(S(=O)(=O)c3ccc4c(c3)C(=O)C(=O)N4)CC2)cc(OC)c1OC` gave an IC50 of 32.1 µM.
Still for that read-out and setting: next, `CC1CCN(S(=O)(=O)c2ccc3c(c2)C(=O)C(=O)N3)CC1`: 1.18 µM; `CN1CCN(S(=O)(=O)c2ccc3c(c2)C(=O)C(=O)N3)CC1`: 76.7 µM; `CC1CCN(S(=O)(=O)c2ccc3c(c2)C(=O)C(=O)N3C)CC1`: 1.04 µM.
Same read-out and setting: under `CC1CC(C)CN(S(=O)(=O)c2ccc3c(c2)C(=O)C(=O)N3C)C1` (stereo not drawn) stands 2.82 µM; under `CC1CCN(S(=O)(=O)c2ccc3c(c2)C(=O)C(=O)N3Cc2ccccc2)CC1`, 1.69 µM; under `CN1C(=O)C(=O)c2cc(S(=O)(=O)N3CCN(c4ccccn4)CC3)ccc21`, 5.52 µM.
Same read-out and setting: next, `O=C1Nc2ccc(S(=O)(=O)N3CCN(c4ccc(F)cc4)CC3)cc2C1=O`: above 100 µM.
`O=C1Nc2ccc(S(=O)(=O)N3CCN(Cc4cccc(Cl)c4)CC3)cc2C1=O` had an IC50 of 31.7 µM. That is a double-digit micromolar value.
The same measure, in the same setting: under `CC1CCN(S(=O)(=O)c2ccc3c(c2)C(=O)C(=O)N3Cc2ccc3ccccc3c2)CC1` stands 17.8 µM; under `O=C1Nc2ccc(S(=O)(=O)N3CCN(C(=O)c4ccco4)CC3)cc2C1=O`, 10.1 µM.
Same read-out and setting: under `O=C1C(=O)N(Cc2ccc3ccccc3c2)c2ccc(S(=O)(=O)N3CCOCC3)cc21` stands 39.9 µM.
Still for that read-out and setting: next, `O=C1Nc2ccc(S(=O)(=O)N3CCN(CCc4ccccc4)CC3)cc2C1=O`: 34.9 µM; `O=C1C(=O)N(Cc2ccccc2)c2ccc(S(=O)(=O)N3CCOCC3)cc21`: 13.9 µM.
The molecule `O=C1C(=O)N(Cc2ccccc2)c2ccc(S(=O)(=O)N3CCCCC3)cc21` returned an IC50 of 14 µM.
Still for that read-out and setting: under `O=C1Nc2ccc(S(=O)(=O)N3CCN(c4ccccn4)CC3)cc2C1=O` stands 51.3 µM.

Usually inhibition stands for the share of the control response that was lost under treatment. High values mean a strong effect, low ones a weak effect. In general, IC50 refers to the point on the concentration scale where inhibition reaches its midpoint. Higher therefore signals a need for much substance.
